# Several values for one entry are separate records, joined by “and”; a condition that tells them apart may be missing. Equal values may be shown once. Read-outs that look alike come from different tables or passages of the source.
# Key:
# [1] = tested on: Capan-1 (K-Ras G12V); test: CellTiter-Glo cell viability assay, 5-day treatment; format: cell-based; conditions: Homo sapiens, CAPAN-1, 120 h, 5-day treatment; read-out: Capan-1 Cell Viability assay data (K-Ras G12V, IC50)
# How it was run: (§1)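 Compounds were dispensed directly onto seeded cells and incubated for 5 days, then plates were equilibrated to room temperature for about 30 minutes before luminescence reading. Signals were expressed as percent of the mean DMSO control and fitted with a four-parameter logistic curve.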
# [2] = target: KRAS G13C (Homo sapiens, UniProt P01116+P62937, G13C); test: Disruption of BRAF RBD interaction with Ras (FRET / MOA assay, with Cyclophilin A); format: biochemical
# How it was run: (§2)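 First, compounds at a ten-point threefold dilution series (highest final concentration 30 μM) were incubated with nucleotide-loaded K-Ras, Cyclophilin A and BRAF RBD for 3 h at 25 °C. Next, detection antibodies were added for 1.5 h. Finally, IC50 was calculated from TR-FRET ratio decreases against DMSO controls.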
# [3] = target: KRAS G12S (Homo sapiens, UniProt P01116+P62937, G12S); test: as above; format: biochemical
# How it was run: as §2
# [4] = target: KRAS G12C (Homo sapiens, UniProt P01116+P62937, G12C); test: as above; format: biochemical
# How it was run: as §2
# [5] = target: KRAS G12D (Homo sapiens, UniProt P01116+P62937, G12D); test: as above; format: biochemical
# How it was run: as §2
# [6] = target: NRAS G12C (Homo sapiens, UniProt P01111+P62937, G12C); test: as above; format: biochemical
# [7] = target: KRAS G12V (Homo sapiens, UniProt P01116+P62937, G12V); test: as above; format: biochemical
# How it was run: as §2
# [8] = target: KRAS WT (Homo sapiens, UniProt P01116+P62937); test: as above; format: biochemical
# How it was run: as §2
# [9] = target: KRAS G13D (Homo sapiens, UniProt P01116+P62937, G13D); test: as above; format: biochemical
# How it was run: as §2
# [10] = tested on: NCI-H358 (K-Ras G12C); test: CellTiter-Glo cell viability assay, 5-day treatment; format: cell-based; conditions: Homo sapiens
# How it was run: as §1
# [11] = NRAS G12C FRET data IC50, NRAS G12C
# [12] = KRAS G12V FRET data IC50, KRAS G12V
# [13] = KRAS WT FRET data IC50, KRAS WT
# [14] = KRAS G13D FRET data IC50, KRAS G13D
# [15] = NCI-H358, 120 h, 5-day treatment, read-out: H358 Cell Viability assay data (K-Ras G12C, IC50)
# [16] = read-out: KRAS G13C FRET data, IC50
# [17] = read-out: KRAS G12S FRET data, IC50
# [18] = read-out: KRAS G12C FRET data, IC50
# [19] = read-out: KRAS G12D FRET data, IC50
# [20] = NRAS G12C, read-out: NRAS G12C FRET data IC50
# [21] = KRAS G12V, read-out: KRAS G12V FRET data IC50
# [22] = KRAS WT, read-out: KRAS WT FRET data IC50
# [23] = KRAS G13D, read-out: KRAS G13D FRET data IC50
# [24] = KRAS G13C, read-out: KRAS G13C FRET data IC50
# [25] = KRAS G12C, read-out: KRAS G12C FRET data IC50
# [26] = NCI-H358, H358, K-Ras G12C, read-out: Additional H358 Cell Viability assay data (K-Ras G12C, IC50)
# Sequence of KRAS G12S (P01116 1-169 isoform P01116-2 G12S limits assumed): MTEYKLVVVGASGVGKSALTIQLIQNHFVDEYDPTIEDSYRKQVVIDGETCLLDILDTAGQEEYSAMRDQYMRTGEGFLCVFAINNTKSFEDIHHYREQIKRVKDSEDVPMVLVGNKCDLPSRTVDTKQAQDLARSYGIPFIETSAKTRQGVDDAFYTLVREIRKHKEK
# Sequence of KRAS G12S (P62937 whole entry): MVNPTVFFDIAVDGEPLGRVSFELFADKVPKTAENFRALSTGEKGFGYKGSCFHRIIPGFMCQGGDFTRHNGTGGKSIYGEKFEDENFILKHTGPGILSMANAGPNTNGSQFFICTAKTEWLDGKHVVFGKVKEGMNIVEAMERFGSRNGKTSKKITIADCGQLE
# Sequence of KRAS G13D (P01116 1-169 isoform P01116-2 G13D limits assumed): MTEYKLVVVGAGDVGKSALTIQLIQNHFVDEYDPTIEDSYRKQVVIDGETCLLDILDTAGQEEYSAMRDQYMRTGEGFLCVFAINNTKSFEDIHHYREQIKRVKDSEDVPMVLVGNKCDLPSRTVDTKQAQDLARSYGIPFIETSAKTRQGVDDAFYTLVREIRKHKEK
# Sequence of KRAS G13D (P62937 whole entry): as the sequence (P62937 whole entry) above
# Sequence of NRAS G12C (P01111 whole entry G12C): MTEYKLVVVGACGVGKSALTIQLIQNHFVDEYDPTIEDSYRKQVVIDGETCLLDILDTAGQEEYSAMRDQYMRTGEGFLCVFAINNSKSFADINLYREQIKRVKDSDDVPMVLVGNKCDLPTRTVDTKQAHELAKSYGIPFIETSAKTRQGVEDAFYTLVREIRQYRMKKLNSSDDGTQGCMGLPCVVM
# Sequence of NRAS G12C (P62937 whole entry): as the sequence (P62937 whole entry) above
# Sequence of KRAS WT (P01116 1-169 isoform P01116-2 limits assumed): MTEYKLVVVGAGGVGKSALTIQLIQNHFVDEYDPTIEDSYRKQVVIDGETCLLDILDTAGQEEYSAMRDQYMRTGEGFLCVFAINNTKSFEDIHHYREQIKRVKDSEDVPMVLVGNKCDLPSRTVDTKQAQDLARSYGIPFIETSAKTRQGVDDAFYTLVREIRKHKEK
# Sequence of KRAS WT (P62937 whole entry): as the sequence (P62937 whole entry) above
# Sequence of KRAS G12C (P01116 1-169 isoform P01116-2 G12C): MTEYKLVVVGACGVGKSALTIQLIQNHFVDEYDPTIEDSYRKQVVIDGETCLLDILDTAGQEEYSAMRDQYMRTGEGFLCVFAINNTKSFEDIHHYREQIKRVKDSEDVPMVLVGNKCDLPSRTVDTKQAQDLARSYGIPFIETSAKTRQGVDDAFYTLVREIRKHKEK
# Sequence of KRAS G12C (P62937 whole entry): as the sequence (P62937 whole entry) above
# Sequence of KRAS G12V (P01116 1-169 isoform P01116-2 G12V limits assumed): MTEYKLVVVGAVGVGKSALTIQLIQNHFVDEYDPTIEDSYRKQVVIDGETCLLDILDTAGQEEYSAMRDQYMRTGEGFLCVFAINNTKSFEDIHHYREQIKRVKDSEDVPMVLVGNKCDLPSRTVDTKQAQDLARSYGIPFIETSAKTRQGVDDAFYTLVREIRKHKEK
# Sequence of KRAS G12V (P62937 whole entry): as the sequence (P62937 whole entry) above
# Sequence of KRAS G13C (P01116 1-169 isoform P01116-2 G13C): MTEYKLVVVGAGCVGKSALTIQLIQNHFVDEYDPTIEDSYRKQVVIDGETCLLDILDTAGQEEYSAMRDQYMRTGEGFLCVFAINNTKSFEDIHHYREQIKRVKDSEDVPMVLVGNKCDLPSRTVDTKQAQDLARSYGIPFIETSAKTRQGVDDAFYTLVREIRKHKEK
# Sequence of KRAS G13C (P62937 whole entry): as the sequence (P62937 whole entry) above
# Sequence of KRAS G12D (P01116 1-169 isoform P01116-2 G12D limits assumed): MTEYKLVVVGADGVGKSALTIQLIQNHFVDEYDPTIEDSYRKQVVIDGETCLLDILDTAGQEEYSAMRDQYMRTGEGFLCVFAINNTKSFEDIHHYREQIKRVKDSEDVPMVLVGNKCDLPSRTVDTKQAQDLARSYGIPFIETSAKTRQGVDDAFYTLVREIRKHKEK
# Sequence of KRAS G12D (P62937 whole entry): as the sequence (P62937 whole entry) above
SMILES,"IC50 [10, 15] [nM]","IC50 [2, 16]","IC50 [3, 17]","IC50 [4, 18]","IC50 [5, 19] [nM]","IC50 [6, 20]","IC50 [7, 21]","IC50 [8, 22]","IC50 [9, 23]",other results
CCn1c(-c2cnccc2COC)c2c3cc(ccc31)-c1cc(O)cc(c1)C[C@H](NC(=O)[C@H](C(C)C)N(C)C(=O)[C@H]1CCN(C(=O)C(C)(C)N(C)C)C1)C(=O)N1CCC[C@H](N1)C(=O)OCC(C)(C)C2 [Example A8],,,,,,,,,,IC50 [1]: 1000 to 10000 nM
"CCn1c(-c2cnccc2COC)c2c3cc(ccc31)-c1cc(O)cc(c1)C[C@H](NC(=O)[C@H](C(C)C)N(C)C(=O)[C@H]1CCN(C(=O)N(C)C)C1)C(=O)N1CCC[C@H](N1)C(=O)OCC(C)(C)C2 [Example A42, (3S)-N3-[(1S)-1-{[(8S,14S)-22-ethyl-4-hydroxy-21-[4-(methoxymethyl)pyridin-3-yl]-18,18-dimethyl-9,15-dioxo-16-oxa-10,22,28-triazapentacyclo[18.5.2.1^2,6.1^10,14.0^23,27]nonacosa-1(26),2,4,6(29),20,23(27),24-heptaen-8-yl]carbamoyl}-2-methylpropyl]-N1,N1,N3-trimethylpyrrolidine-1,3-dicarboxamide]",1000 to 10000,,,,,,,,,"IC50 ([2]; KRAS G13C FRET data, IC50): 1000 to 10000 nM; IC50 ([3]; KRAS G12S FRET data, IC50): 1000 to 10000 nM; IC50 ([4]; KRAS G12C FRET data, IC50): 100 to 1000 nM; IC50 ([5]; KRAS G12D FRET data, IC50): > 10000 nM; IC50 [6, 11]: 1000 to 10000 nM; IC50 [7, 12]: 1000 to 10000 nM; IC50 [8, 13]: 1000 to 10000 nM; IC50 [9, 14]: 1000 to 10000 nM"
CCn1c(-c2cnccc2COC)c2c3cc(ccc31)-c1cc(O)cc(c1)C[C@H](NC(=O)[C@H](C(C)C)N1CCCCC1=O)C(=O)N1CCC[C@H](N1)C(=O)OCC(C)(C)C2 [Example A44],1000 to 10000,1000 to 10000 nM,1000 to 10000 nM,100 to 1000 nM,1000 to 10000,100 to 1000 nM,100 to 1000 nM,100 to 1000 nM,1000 to 10000 nM,
"CCn1c(-c2cnccc2COC)c2c3cc(ccc31)-c1cc(O)cc(c1)C[C@H](NC(=O)[C@H](C(C)C)N(C)C(=O)OC1CCOC1)C(=O)N1CCC[C@H](N1)C(=O)OCC(C)(C)C2 (stereo partly drawn) [Example A50, oxolan-3-yl-N-[(1S)-1-{[(8S,14S)-22-ethyl-4-hydroxy-21-[4-(methoxymethyl)pyridin-3-yl]-18,18-dimethyl-9,15-dioxo-16-oxa-10,22,28-triazapentacyclo[18.5.2.1^2,6.1^10,14.0^23,27]nonacosa-1(26),2,4,6(29),20,23(27),24-heptaen-8-yl]carbamoyl}-2-methylpropyl]-N-methylcarbamate]",1000 to 10000,,,,,,,,,"IC50 ([2]; KRAS G13C FRET data, IC50): 1000 to 10000 nM; IC50 ([3]; KRAS G12S FRET data, IC50): 1000 to 10000 nM; IC50 ([4]; KRAS G12C FRET data, IC50): 100 to 1000 nM; IC50 ([5]; KRAS G12D FRET data, IC50): 1000 to 10000 nM; IC50 [6, 11]: 1000 to 10000 nM; IC50 [7, 12]: 1000 to 10000 nM; IC50 [8, 13]: 100 to 1000 nM; IC50 [9, 14]: 1000 to 10000 nM"
CCn1c(-c2cnccc2COC)c2c3cc(ccc31)-c1cc(O)cc(c1)C[C@H](NC(=O)[C@@H](OC(=O)N(C)C)C(C)C)C(=O)N1CCC[C@H](N1)C(=O)OCC(C)(C)C2 [Example A53],1000 to 10000,1000 to 10000 nM,1000 to 10000 nM,100 to 1000 nM,> 10000,1000 to 10000 nM,1000 to 10000 nM,1000 to 10000 nM,1000 to 10000 nM,
CCn1c(-c2cccnc2[C@H](C)OC)c2c3cc(ccc31)-c1cccc(c1)C[C@H](NC(=O)[C@H](C(C)C)N(C)C(=O)[C@H]1CCN(C(C)=O)C1)C(=O)N1CCC[C@H](N1)C(=O)OCC(C)(C)C2 [Example A60],1000 to 10000,> 10000 nM,1000 to 10000 nM,1000 to 10000 nM,> 10000,1000 to 10000 nM,1000 to 10000 nM,1000 to 10000 nM,> 10000 nM,
CCn1c(-c2cnccc2COC)c2c3cc(ccc31)-c1cc(O)cc(c1)C[C@H](NC(=O)[C@H](C(C)C)N(C)C(=O)CN1CCOCC1)C(=O)N1CCC[C@H](N1)C(=O)OCC(C)(C)C2 [Example A65],1000 to 10000,100 to 1000 nM,100 to 1000 nM,100 to 1000 nM,1000 to 10000,100 to 1000 nM,1000 to 10000 nM,100 to 1000 nM,100 to 1000 nM,
CCn1c(-c2cccnc2[C@H](C)OC)c2c3cc(ccc31)-c1csc(n1)C[C@H](NC(=O)[C@H](C(C)C)N(C)C(=O)[C@H]1CCN(C(=O)OC)C1)C(=O)N1CCC[C@H](N1)C(=O)OCC(C)(C)C2 [Example A116],100 to 1000,1000 to 10000 nM and > 10000 nM,1000 to 10000 nM and > 10000 nM,1000 to 10000 nM and > 10000 nM,> 10000,1000 to 10000 nM and > 10000 nM,1000 to 10000 nM and > 10000 nM,1000 to 10000 nM and > 10000 nM,1000 to 10000 nM and > 10000 nM,
CCn1c(-c2cccnc2[C@H](C)OC)c2c3cc(ccc31)-c1cc(O)cc(c1)C[C@H](NC(=O)[C@H](C(C)C)N(C)C(=O)C1(F)CC1)C(=O)N1CCC[C@H](N1)C(=O)OCC(C)(C)C2 [Example A165],,,,,,,10 to 100 nM,,,IC50 [1]: 10 to 100 nM
CCn1c(-c2cccnc2[C@H](C)OC)c2c3cc(ccc31)-c1cc(O)cc(c1)C[C@H](NC(=O)C1CCCC1C(F)F)C(=O)N1CCC[C@H](N1)C(=O)OCC(C)(C)C2 (some centres unmarked) [Example A254],1000 to 10000,100 to 1000 nM,100 to 1000 nM,100 to 1000 nM,1000 to 10000,100 to 1000 nM,100 to 1000 nM,100 to 1000 nM,100 to 1000 nM,
C=CC(=O)N1CC[C@H](C(=O)N(C)[C@H](C(=O)N[C@H]2Cc3nc(cs3)-c3ccc4c(c3)c(c(-c3cccnc3[C@H](C)OC)n4CC)CC(C)(C)CN(C)C[C@@H]3CCCN(N3)C2=O)C(C)C)C1 [Example A287],,,> 10000 nM,,> 10000,> 10000 nM,> 10000 nM,> 10000 nM,> 10000 nM,"IC50 [2, 24]: > 10000 nM; IC50 [4, 25]: > 10000 nM; IC50 [10, 26]: > 1000 nM"
C=CC(=O)N1C[C@@H](C(=O)N(C)[C@H](C(=O)N[C@H]2Cc3cccc(c3)-c3ccc4c(c3)c(c(-c3cccnc3[C@H](C)OC)n4CC)CC(C)(C)COC(=O)[C@@H]3CCCN(N3)C2=O)C(C)C)[C@@H](C(F)(F)F)C1 [Example A401],,,1000 to 10000 nM,,> 10000,1000 to 10000 nM,1000 to 10000 nM,1000 to 10000 nM,1000 to 10000 nM,"IC50 [2, 24]: 100 to 1000 nM; IC50 [4, 25]: 1000 to 10000 nM; IC50 [10, 26]: 100 to 1000 nM"
CCn1c(-c2cc(N3CCN(C)CC3)cnc2[C@H](C)OC)c2c3cc(ccc31)-c1csc(n1)C[C@H](NC(=O)[C@H](C(C)C)N(C)C(=O)N1CC(OC)C1)C(=O)N1CCC[C@H](N1)C(=O)OCC(C)(C)C2 [Example A466],,,,,,,,,,IC50 [1]: < 10 nM
CCn1c(-c2cccnc2[C@H](C)OC)c2c3cc(ccc31)-c1csc(n1)C[C@H](NC(=O)[C@H](C(C)C)N(C)C(=O)N1CC(Cc3cnn(C)c3)C1)C(=O)N1CCC[C@H](N1)C(=O)OCC(C)(C)C2 [Example A500],,,,,,,,,,IC50 [1]: < 10 nM

# Source: patent US20230233569A1 (Revolution Medicines, Inc., priority 2020, published 2023)
